# Test results taken from patent publication US20080306076A1, “MODULATION OF CHEMOSENSORY RECEPTORS AND LIGANDS ASSOCIATED THEREWITH” (SENOMYX, INC., priority 2007, published 2008).
# Substitutions are numbered along the chain they refer to.
# How the values were obtained:
# hT1R1 T149S = target: T1, hT1R1 T149S (Homo sapiens, UniProt Q7RTX1, T149S); assay: Mutagenesis study, hT1R1 mutant T149S; assay type: cell-based; details: 0.25 mM of L-Glu, FIG. 12
# T1 construct: expressed in transfected cells; host or cells: HEK293, transient transfection
# T1 sequence (Q7RTX1 21-841 T149S): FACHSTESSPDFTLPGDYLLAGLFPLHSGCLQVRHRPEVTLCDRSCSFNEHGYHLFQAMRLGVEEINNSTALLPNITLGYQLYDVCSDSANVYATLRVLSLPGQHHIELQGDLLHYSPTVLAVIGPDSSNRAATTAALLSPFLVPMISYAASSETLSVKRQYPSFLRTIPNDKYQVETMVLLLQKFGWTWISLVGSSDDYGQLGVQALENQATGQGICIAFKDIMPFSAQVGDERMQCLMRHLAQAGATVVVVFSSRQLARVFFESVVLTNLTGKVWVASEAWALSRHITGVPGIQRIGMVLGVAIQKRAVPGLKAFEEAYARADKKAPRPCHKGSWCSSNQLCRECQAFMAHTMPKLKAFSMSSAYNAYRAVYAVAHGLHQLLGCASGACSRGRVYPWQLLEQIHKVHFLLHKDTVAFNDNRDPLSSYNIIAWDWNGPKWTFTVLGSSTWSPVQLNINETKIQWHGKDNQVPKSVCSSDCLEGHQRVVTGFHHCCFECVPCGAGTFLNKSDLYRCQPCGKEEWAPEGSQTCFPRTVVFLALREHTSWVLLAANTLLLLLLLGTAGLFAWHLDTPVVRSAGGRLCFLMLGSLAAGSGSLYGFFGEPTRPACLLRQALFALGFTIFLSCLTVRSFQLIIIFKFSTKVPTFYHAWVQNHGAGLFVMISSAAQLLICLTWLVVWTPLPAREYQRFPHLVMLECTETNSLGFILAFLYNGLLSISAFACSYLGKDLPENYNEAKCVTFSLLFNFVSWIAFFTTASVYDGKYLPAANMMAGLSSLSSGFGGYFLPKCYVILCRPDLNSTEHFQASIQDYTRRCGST
# T1 sequence (Q923K1 21-858 partner): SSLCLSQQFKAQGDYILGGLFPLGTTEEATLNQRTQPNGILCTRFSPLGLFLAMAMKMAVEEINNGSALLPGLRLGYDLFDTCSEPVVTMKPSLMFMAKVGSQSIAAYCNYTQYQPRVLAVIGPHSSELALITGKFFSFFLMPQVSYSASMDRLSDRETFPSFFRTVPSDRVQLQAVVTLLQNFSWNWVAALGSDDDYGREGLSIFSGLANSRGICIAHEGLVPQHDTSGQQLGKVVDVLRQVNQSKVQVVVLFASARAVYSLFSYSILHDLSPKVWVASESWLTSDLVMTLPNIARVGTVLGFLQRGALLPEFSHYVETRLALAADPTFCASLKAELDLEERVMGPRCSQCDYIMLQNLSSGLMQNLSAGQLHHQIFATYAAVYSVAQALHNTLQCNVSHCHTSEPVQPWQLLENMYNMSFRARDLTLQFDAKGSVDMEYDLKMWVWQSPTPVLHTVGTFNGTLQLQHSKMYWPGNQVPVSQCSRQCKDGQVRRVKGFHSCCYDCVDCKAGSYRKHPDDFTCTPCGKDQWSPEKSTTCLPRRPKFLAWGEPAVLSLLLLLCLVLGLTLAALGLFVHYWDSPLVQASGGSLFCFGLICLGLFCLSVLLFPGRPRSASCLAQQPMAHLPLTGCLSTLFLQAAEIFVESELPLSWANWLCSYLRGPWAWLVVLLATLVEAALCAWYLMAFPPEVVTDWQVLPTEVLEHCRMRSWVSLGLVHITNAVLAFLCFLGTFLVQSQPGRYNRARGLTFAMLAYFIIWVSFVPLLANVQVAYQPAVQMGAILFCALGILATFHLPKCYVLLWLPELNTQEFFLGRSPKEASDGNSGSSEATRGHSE
# Text: (§1) In order to further define the interaction sites of umami stimuli, we performed site-directed mutagenesis on human T1R1 VFT. The mutagenesis was done using the routine PCR-based method. […] were transiently transfected into HEK293 cell together with the rat T1R3 wild type cDNA, and the transfected cells were characterized using an automated FLIPR machine or a calcium imaging system as described in our previous patent applications.
# hT1R1 H71A = target: T2, hT1R1 H71A (Homo sapiens, UniProt Q7RTX1, H71A); assay: Mutagenesis study, hT1R1 mutant H71A; assay type: cell-based; details: H71 mutation
# T2 construct: expressed in transfected cells; host or cells: HEK293, transient transfection
# T2 sequence (Q7RTX1 21-841 H71A): T1 sequence (Q7RTX1 21-841 T149S) with H51A, S129T
# T2 sequence (Q923K1 21-858 partner): T1 sequence (Q923K1 21-858 partner)
# Text: as §1
Compound,activity against L-Glu compared to the wild type (hT1R1 T149S),enhancement activity of GMP (hT1R1 H71A)
"N[C@@H](CCC(=O)O)C(=O)O [L-Glu, L-glutamate]",increased activity,–
"Nc1nc2c(ncn2[C@@H]2O[C@H](COP(=O)(O)O)[C@@H](O)[C@H]2O)c(=O)[nH]1 [GMP, guanosine-5′-monophosphate]",–,similarly affected
